Assay results: PubChem BioAssay (NCI)
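Each compound was tested at five concentrations against cells in 96-well plates for 48 hours. At the TGI there is no net growth.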

How the values were obtained:
Test in all cases: growth of human tumour cells (NCI), 48 h
[1] = test system: 786-0 renal
[2] = test system: A498 renal
[3] = test system: A549 NSCLC
[4] = test system: ACHN renal
[5] = test system: BT-549 breast
[6] = test system: CAKI-1 renal
[7] = test system: CCRF-CEM leukemia
[8] = test system: COLO 205 colon
[9] = test system: DU-145 prostate
[10] = test system: EKVX NSCLC
[11] = test system: HCT-116 colon
[12] = test system: HCT-15 colon
[13] = test system: HOP-62 NSCLC
[14] = test system: HOP-92 NSCLC
[15] = test system: HS 578T breast
[16] = test system: HT29 colon
[17] = test system: IGROV1 ovarian
[18] = test system: K-562 leukemia
[19] = test system: KM12 colon
[20] = test system: LOX IMVI melanoma
[21] = test system: M14 melanoma
[22] = test system: MALME-3M melanoma
[23] = test system: MDA-MB-231 breast
[24] = test system: MDA-MB-435
[25] = test system: MDA-N
[26] = test system: MOLT-4 leukemia
[27] = test system: NCI-H226 lung
[28] = test system: NCI-H23 lung
[29] = test system: NCI-H522 lung
[30] = test system: NCI/ADR-RES ovarian
[31] = test system: OVCAR-3 ovarian
[32] = test system: OVCAR-4 ovarian
[33] = test system: OVCAR-5 ovarian
[34] = test system: OVCAR-8 ovarian
[35] = test system: PC-3 prostate
[36] = test system: RPMI-8226 leukemia
[37] = test system: RXF 393 renal
[38] = test system: SF-268 CNS
[39] = test system: SF-295 CNS
[40] = test system: SK-MEL-2 melanoma
[41] = test system: SK-MEL-28 melanoma
[42] = test system: SK-MEL-5 melanoma
[43] = test system: SK-OV-3 ovarian
[44] = test system: SN12C renal
[45] = test system: SNB-19 CNS
[46] = test system: SNB-75 CNS
[47] = test system: SW-620 colon
[48] = test system: T-47D breast
[49] = test system: TK-10 renal
[50] = test system: U251 CNS
[51] = test system: UACC-257 melanoma
[52] = test system: UACC-62 melanoma
[53] = test system: UO-31 renal
[54] = test system: HL-60(TB) leukemia
[55] = test system: NCI-H460 lung
[56] = test system: SF-539 CNS

With O=S(=O)(Nc1nc2ccccc2n1S(=O)(=O)c1ccccc1)c1ccccc1 the TGI [1] was > 100 µM, the TGI [2] was > 100 µM and the TGI [3] was > 100 µM. For the same compound, the TGI [4] was 61.9 µM, the TGI [5] was > 100 µM and the TGI [6] was > 100 µM. The TGI [7] was 73.8 µM, the TGI [8] was > 100 µM and the TGI [9] was > 100 µM. The TGI [10] was > 100 µM, the TGI [11] was > 100 µM and the TGI [12] was > 100 µM. The TGI [13] was > 100 µM, the TGI [14] was > 100 µM and the TGI [15] was > 100 µM. For the same compound, the TGI [16] was > 100 µM, the TGI [17] was > 100 µM and the TGI [18] was > 100 µM. The TGI [19] was > 100 µM, the TGI [20] was > 100 µM and the TGI [21] was > 100 µM. For the same compound, the TGI [22] was > 100 µM, the TGI [23] was > 100 µM and the TGI [24] was > 100 µM. The TGI [25] was > 100 µM, the TGI [26] was > 100 µM and the TGI [27] was > 100 µM. For the same compound, the TGI [28] was > 100 µM, the TGI [29] was > 100 µM and the TGI [30] was > 100 µM. The TGI [31] was > 100 µM, the TGI [32] was > 100 µM and the TGI [33] was > 100 µM. The TGI [34] was > 100 µM, the TGI [35] was > 100 µM and the TGI [36] was > 100 µM. For the same compound, the TGI [37] was > 100 µM, the TGI [38] was > 100 µM and the TGI [39] was > 100 µM. For the same compound, the TGI [40] was > 100 µM, the TGI [41] was > 100 µM and the TGI [42] was > 100 µM. For the same compound, the TGI [43] was > 100 µM, the TGI [44] was > 100 µM and the TGI [45] was > 100 µM. The TGI [46] was > 100 µM, the TGI [47] was > 100 µM and the TGI [48] was > 100 µM. The TGI [49] was > 100 µM, the TGI [50] was > 100 µM and the TGI [51] was > 100 µM. The TGI [52] was > 100 µM and the TGI [53] was > 100 µM.
c1ccc2c(c1)N[C@@H]1c3[nH]c4ccccc4c3CC[C@H]21 gave a TGI [1] of 28.5 µM, a TGI [2] of 32 µM and a TGI [3] of 41.4 µM. The TGI [4] was 68.1 µM, the TGI [5] was 37.7 µM and the TGI [6] was 38.6 µM. The TGI [7] was 36.9 µM, the TGI [8] was 27.9 µM and the TGI [9] was 35.3 µM. It also gave a TGI [10] of 37.2 µM, a TGI [11] of 27.8 µM and a TGI [12] of 65.3 µM. The TGI [54] was 36.2 µM, the TGI [13] was 26.9 µM and the TGI [14] was 30.6 µM. For the same compound, the TGI [15] was 25.9 µM, the TGI [16] was 29.7 µM and the TGI [17] was 20.9 µM. For the same compound, the TGI [18] was 27.8 µM, the TGI [19] was 30.7 µM and the TGI [20] was 29.5 µM. For the same compound, the TGI [21] was 26.4 µM, the TGI [22] was 22.1 µM and the TGI [23] was 29.9 µM. For the same compound, the TGI [24] was 31.1 µM, the TGI [25] was 39.2 µM and the TGI [26] was 42 µM. The TGI [27] was 31.6 µM, the TGI [28] was 33 µM and the TGI [55] was 33.9 µM. For the same compound, the TGI [29] was 24.2 µM, the TGI [30] was 28 µM and the TGI [31] was 27.3 µM. For the same compound, the TGI [33] was 29.4 µM, the TGI [34] was 25.6 µM and the TGI [35] was 24.6 µM. The TGI [36] was 59 µM, the TGI [37] was 32.6 µM and the TGI [38] was 65.1 µM. For the same compound, the TGI [39] was 29.7 µM, the TGI [56] was 31.4 µM and the TGI [40] was 31.7 µM. The TGI [41] was 35.3 µM, the TGI [42] was 27.3 µM and the TGI [43] was 36.7 µM. The TGI [44] was 28.5 µM, the TGI [45] was 37.9 µM and the TGI [46] was 22.8 µM. For the same compound, the TGI [47] was 33.3 µM, the TGI [48] was 76.2 µM and the TGI [49] was > 100 µM. For the same compound, the TGI [50] was 27.2 µM, the TGI [51] was > 100 µM and the TGI [52] was 31.6 µM. The TGI [53] was 37.2 µM.
